The structures appear in SMILES notation. Some results are limits rather than exact numbers.

The text below walks through data of patent publication US20260138976A1 (Hoffmann-La Roche Inc., priority 2022, published 2026).

Assay [1] has as its target T1, DGKα (hDGKalpha(1-735)-N-His) (Homo sapiens, UniProt P23743).
T1 construct: hDGKalpha(1-735)-N-His; His (N); made in house; host or cells: Sf21 insect cells (baculovirus)
The experiment in a line: In vitro DGK inhibition assay, DGKalpha ADP Glo (in house). It is filed as biochemical. To be noted: 4 nM DGKα, 25 μM ATP, 125 uM DLG in liposomes, 1 hour reaction. Put shortly:
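ADP-Glo luminescence measured ADP formed over 1 h by Sf21-expressed full-length human enzymes: DGKα at 4 nM with 25 µM ATP, DGKζ at 2 nM with 50 µM ATP, both on 125 µM DLG in PS/PC liposomes. Dose–response used 11 threefold dilutions at 2% final DMSO.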
On the technique in general: ADP-Glo first removes unused ATP, then detects ADP through luciferase.

Assay [2] has as its system primary human T-cells. The assay is described as follows: Proliferation assay (5 days, CellTiter-Glo, CD3-stimulated T-cells). It is filed as cell-based. To be noted: for Emax proliferation (% activation): CD3 condition, normalised to DMSO (neutral) and 20 μM reference compound A1 = 100%; for EC50: Homo sapiens, T-cell, 120 h, CD3-stimulated primary human T-cells, 5 days, CellTiter-Glo, fitted sigmoidal curve, read-out: Tcell Proliferation CD3 EC50. Put shortly:
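Proliferation read-out: ATP luminescence (CellTiter-Glo 2.0) at day 5 in expanded primary human T-cells on CD3 antibody-coated plates, with PBS-only plates as a counter screen. Compounds in 5–6 pt series (factor 3.333, top 20 or 10 μM final). Values are normalized to DMSO (neutral) and 20 μM reference A1 (100%), from sigmoidal fits.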

T1 sequence (P23743 whole entry): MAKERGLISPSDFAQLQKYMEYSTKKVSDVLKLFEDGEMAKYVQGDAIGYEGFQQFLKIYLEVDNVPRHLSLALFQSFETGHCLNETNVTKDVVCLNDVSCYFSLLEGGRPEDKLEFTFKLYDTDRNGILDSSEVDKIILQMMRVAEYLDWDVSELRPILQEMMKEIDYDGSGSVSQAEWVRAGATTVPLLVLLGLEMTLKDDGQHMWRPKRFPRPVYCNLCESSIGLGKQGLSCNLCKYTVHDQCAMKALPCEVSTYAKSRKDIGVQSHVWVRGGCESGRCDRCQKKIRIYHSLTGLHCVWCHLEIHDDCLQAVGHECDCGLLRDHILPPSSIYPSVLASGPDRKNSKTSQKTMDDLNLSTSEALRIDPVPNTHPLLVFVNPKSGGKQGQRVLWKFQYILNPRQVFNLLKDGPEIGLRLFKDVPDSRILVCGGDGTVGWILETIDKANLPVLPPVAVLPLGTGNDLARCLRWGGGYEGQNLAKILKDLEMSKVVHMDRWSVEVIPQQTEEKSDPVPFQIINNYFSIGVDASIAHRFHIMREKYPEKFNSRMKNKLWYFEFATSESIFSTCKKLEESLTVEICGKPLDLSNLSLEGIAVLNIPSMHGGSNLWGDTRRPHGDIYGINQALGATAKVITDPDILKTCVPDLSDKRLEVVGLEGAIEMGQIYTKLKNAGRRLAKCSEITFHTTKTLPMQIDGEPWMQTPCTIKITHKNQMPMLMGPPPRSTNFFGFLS

For `CC(C)(c1nnc(-c2ccc3c(c2)N(Cc2ccc(-c4noc(C5CC5)n4)cc2)C(=O)[C@@H](N)CS3(=O)=O)o1)C(F)(F)F` [Example 167, (3R)-3-amino-5-[[4-(5-cyclopropyl-1,2,4-oxadiazol-3-yl)phenyl]methyl]-1,1-dioxo-7-[5-(2,2,2-trifluoro-1,1-dimethyl-ethyl)-1,3,4-oxadiazol-2-yl]-2,3-dihydro-1λ^6,5-benzothiazepin-4-one], in assay [1], the IC50 was > 62.5 µM. In assay [2], the “Emax proliferation (% activation)” value is 186 % activation and the EC50 was 0.629 µM.
The corresponding values for `CCC(O)(c1nnc(-c2ccc3c(c2)N(Cc2ccc(-c4noc(C5CC5)n4)cc2)C(=O)[C@@H](N)CS3(=O)=O)o1)C(F)(F)F` (stereo partly drawn) [Example 169] are > 19.8 µM, 106 % activation and 0.833 µM.
For `CCN1CC(c2nnc(-c3ccc4c(c3)N(Cc3ccc(-c5noc(C(C)(C)C)n5)cc3)C(=O)[C@@H](N)CS4(=O)=O)o2)CC(F)(F)C1` (stereo partly drawn) [Example 181, (3R)-3-amino-5-[[4-(5-tert-butyl-1,2,4-oxadiazol-3-yl)phenyl]methyl]-7-[5-(1-ethyl-5,5-difluoro-3-piperidyl)-1,3,4-oxadiazol-2-yl]-1,1-dioxo-2,3-dihydro-1λ^6,5-benzothiazepin-4-one], in that order: > 62.5 µM, 105 % activation and 0.718 µM.
For `COCCN1CC(c2nnc(-c3ccc4c(c3)N(Cc3ccc(-c5noc(C(F)(F)F)n5)cc3)C(=O)[C@@H](N)CS4(=O)=O)o2)CC(F)(F)C1` (stereo partly drawn) [Example 182, (3R)-3-amino-7-[5-[5,5-difluoro-1-(2-methoxyethyl)-3-piperidyl]-1,3,4-oxadiazol-2-yl]-1,1-dioxo-5-[[4-[5-(trifluoromethyl)-1,2,4-oxadiazol-3-yl]phenyl]methyl]-2,3-dihydro-1λ^6,5-benzothiazepin-4-one], in that order: > 62.5 µM, 175 % activation and 1.27 µM.
As for `COCCN1CC(c2nnc(-c3ccc4c(c3)N(Cc3ccc(-c5ccc(OC)cc5)cc3)C(=O)[C@@H](N)CS4(=O)=O)o2)CC(F)(F)C1` (stereo partly drawn) [Example 183, (3R)-3-amino-7-[5-[5,5-difluoro-1-(2-methoxyethyl)-3-piperidyl]-1,3,4-oxadiazol-2-yl]-5-[[4-(4-methoxyphenyl)phenyl]methyl]-1,1-dioxo-2,3-dihydro-1λ^6,5-benzothiazepin-4-one], in assay [1], the IC50 is > 62.5 µM. For the same molecule, in assay [2], the “Emax proliferation (% activation)” value amounted to 156 % activation and the EC50 turned out to be 1.68 µM.

The term IC50 denotes the concentration that inhibits the measured activity by half. A high value points to weaker potency in that assay.
